Experiment [1] deals with T1, EP300 (Homo sapiens, UniProt Q09472).
T1 sequence (Q09472 1049-1156 limits assumed): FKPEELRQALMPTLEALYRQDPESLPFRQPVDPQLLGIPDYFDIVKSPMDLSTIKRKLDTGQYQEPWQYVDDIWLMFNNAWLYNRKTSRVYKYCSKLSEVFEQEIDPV
The experiment in a line: BROMOscan ligand-binding assay.
Excerpt: (§1) BROMOscan is a binding assay based on the well-known KINOMEscan technology. This assay measures the binding of a DNA-tagged bromodomain to an immobilized BRD ligand. If an inhibitor is present, it will compete with the bromodomain binding to the immobilized ligand, resulting in reduction of a quantitative PCR (qPCR) signal in a dose-dependent manner.

Another experiment has as its target PBRM1(2) (Homo sapiens, UniProt Q86U86). The experiment in a line: BROMOscan ligand-binding assay.
For another experiment, the target named is BRD3(1) (Homo sapiens, UniProt Q15059). The experiment in a line: BROMOscan ligand-binding assay.
Sequence of BRD3(1) (Q15059 34-140 limits assumed): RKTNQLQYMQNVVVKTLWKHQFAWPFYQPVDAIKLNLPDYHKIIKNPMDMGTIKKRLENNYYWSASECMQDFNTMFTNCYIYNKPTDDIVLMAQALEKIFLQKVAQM
The target in the next experiment is BRD4(fl) (Homo sapiens, UniProt O60885). The experiment in a line: BROMOscan ligand-binding assay.
The next experiment addresses T2, ATAD2B (Homo sapiens, UniProt Q9ULI0).
T2 sequence (Q9ULI0 951-1066 limits assumed): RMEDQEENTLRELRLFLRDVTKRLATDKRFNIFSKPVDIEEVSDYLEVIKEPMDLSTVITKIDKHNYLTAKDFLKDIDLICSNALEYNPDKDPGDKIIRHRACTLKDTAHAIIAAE
The experiment in a line: BROMOscan ligand-binding assay.

Another experiment addresses BRD2(1,2) (Homo sapiens, UniProt P25440). The experiment is described as follows: BROMOscan ligand-binding assay.
A further experiment addresses BRD2(1) (Homo sapiens, UniProt P25440). The experiment in a line: BROMOscan ligand-binding assay.
The target in experiment [2] is T3, GCN5L2 (Homo sapiens, UniProt Q92830).
T3 sequence (Q92830 728-832 limits assumed): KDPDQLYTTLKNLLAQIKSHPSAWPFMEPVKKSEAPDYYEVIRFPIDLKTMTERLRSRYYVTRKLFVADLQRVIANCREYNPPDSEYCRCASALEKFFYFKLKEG
The experiment in a line: BROMOscan ligand-binding assay.
Excerpt: as §1

Another experiment concerns the target SMARCA4 (Homo sapiens, UniProt P51532). The experiment in a line: BROMOscan ligand-binding assay.
The target in another experiment is SMARCA2 (Homo sapiens, UniProt P51531). The experiment is described as follows: BROMOscan ligand-binding assay.
A further experiment deals with T4, BRD7 (Homo sapiens, UniProt Q9NPI1).
T4 sequence (Q9NPI1 131-235 limits assumed): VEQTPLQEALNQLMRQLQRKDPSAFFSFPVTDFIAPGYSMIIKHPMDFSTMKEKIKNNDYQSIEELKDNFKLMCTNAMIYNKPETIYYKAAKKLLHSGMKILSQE
The experiment in a line: BROMOscan ligand-binding assay.

In another experiment the target is T5, BRPF3 (Homo sapiens, UniProt Q9ULD4).
T5 sequence (Q9ULD4 589-693 limits assumed): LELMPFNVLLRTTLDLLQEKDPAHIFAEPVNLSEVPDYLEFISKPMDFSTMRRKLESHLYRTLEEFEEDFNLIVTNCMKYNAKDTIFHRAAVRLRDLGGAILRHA
The experiment is described as follows: BROMOscan ligand-binding assay.

In another experiment the target is T6, TRIM24 (Homo sapiens, UniProt O15164).
T6 sequence (O15164 899-1004 limits assumed): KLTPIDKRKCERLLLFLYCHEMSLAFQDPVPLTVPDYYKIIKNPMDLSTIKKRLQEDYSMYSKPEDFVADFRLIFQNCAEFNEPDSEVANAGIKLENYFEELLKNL
The experiment in a line: BROMOscan ligand-binding assay.

The target in the next experiment is BRPF1 (Homo sapiens, UniProt P55201). The experiment in a line: Temperature shift assay (non-BRD reader domains). Format: binding. Particulars: 10µM compound.
Sequence of BRPF1 (P55201 1085-1168 limits assumed, species assumed): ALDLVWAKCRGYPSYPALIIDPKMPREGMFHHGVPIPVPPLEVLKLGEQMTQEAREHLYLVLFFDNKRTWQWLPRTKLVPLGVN
Experiment [3] deals with GCN5L2 (Homo sapiens, UniProt Q92830). The experiment in a line: Histone acetyltransferase (HAT) activity assay. The experiment is classed as biochemical.
Target sequence in this assay (Q92830 whole entry, species assumed): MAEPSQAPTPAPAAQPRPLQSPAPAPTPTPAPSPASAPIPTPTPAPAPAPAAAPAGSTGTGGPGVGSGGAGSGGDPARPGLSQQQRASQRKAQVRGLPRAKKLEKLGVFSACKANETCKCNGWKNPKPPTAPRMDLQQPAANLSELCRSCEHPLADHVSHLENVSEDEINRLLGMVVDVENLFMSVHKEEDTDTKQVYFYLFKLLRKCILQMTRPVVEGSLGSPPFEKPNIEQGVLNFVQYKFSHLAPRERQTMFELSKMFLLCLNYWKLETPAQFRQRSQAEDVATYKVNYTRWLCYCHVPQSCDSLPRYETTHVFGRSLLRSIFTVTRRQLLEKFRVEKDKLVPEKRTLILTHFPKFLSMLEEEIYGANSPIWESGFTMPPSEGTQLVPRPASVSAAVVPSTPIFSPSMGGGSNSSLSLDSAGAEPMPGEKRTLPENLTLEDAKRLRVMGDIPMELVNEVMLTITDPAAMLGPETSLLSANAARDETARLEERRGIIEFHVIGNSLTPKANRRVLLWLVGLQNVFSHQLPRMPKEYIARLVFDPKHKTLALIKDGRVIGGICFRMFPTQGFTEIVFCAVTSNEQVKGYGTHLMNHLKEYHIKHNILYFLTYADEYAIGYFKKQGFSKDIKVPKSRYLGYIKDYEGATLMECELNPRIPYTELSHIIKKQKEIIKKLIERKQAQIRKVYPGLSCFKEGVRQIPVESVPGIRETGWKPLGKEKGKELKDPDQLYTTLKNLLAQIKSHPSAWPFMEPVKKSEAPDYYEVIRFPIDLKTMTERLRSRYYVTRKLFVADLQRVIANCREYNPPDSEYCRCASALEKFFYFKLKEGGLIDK
For a further experiment, the target named is T7, HAT1 (Homo sapiens, UniProt O14929).
T7 sequence (O14929 1-419): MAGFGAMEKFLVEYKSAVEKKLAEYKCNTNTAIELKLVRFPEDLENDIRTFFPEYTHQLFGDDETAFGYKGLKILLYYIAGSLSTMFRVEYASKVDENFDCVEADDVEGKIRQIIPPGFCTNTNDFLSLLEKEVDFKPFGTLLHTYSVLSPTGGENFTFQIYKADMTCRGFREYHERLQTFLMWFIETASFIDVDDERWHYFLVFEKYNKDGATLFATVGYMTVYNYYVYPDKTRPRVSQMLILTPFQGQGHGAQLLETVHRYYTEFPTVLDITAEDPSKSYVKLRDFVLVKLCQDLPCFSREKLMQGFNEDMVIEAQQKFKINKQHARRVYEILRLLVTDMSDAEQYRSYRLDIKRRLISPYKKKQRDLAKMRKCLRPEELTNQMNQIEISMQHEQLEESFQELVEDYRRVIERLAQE
The experiment is described as follows: Histone acetyltransferase (HAT) activity assay. The experiment is classed as biochemical.

The target in another experiment is T8, MYST1 (Homo sapiens, UniProt Q9H7Z6).
T8 sequence (Q9H7Z6 1-458): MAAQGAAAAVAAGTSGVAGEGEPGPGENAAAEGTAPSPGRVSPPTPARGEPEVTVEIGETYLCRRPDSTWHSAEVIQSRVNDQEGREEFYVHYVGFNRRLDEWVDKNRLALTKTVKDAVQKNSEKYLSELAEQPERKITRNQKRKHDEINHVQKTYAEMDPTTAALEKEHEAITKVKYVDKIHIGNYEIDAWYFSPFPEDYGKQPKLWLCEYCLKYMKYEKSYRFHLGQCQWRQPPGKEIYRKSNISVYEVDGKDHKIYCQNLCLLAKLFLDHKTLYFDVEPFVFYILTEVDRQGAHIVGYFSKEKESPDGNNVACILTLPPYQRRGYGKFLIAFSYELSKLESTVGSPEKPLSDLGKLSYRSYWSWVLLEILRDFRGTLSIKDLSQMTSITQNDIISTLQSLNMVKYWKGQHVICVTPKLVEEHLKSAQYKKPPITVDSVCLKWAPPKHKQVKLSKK
The experiment in a line: Histone acetyltransferase (HAT) activity assay. Format: biochemical.

Experiment [4] deals with EP300 (Homo sapiens, UniProt Q09472). The experiment is described as follows: Histone acetyltransferase (HAT) activity assay. The experiment is classed as biochemical.
Target sequence in this assay (Q09472 whole entry, species assumed): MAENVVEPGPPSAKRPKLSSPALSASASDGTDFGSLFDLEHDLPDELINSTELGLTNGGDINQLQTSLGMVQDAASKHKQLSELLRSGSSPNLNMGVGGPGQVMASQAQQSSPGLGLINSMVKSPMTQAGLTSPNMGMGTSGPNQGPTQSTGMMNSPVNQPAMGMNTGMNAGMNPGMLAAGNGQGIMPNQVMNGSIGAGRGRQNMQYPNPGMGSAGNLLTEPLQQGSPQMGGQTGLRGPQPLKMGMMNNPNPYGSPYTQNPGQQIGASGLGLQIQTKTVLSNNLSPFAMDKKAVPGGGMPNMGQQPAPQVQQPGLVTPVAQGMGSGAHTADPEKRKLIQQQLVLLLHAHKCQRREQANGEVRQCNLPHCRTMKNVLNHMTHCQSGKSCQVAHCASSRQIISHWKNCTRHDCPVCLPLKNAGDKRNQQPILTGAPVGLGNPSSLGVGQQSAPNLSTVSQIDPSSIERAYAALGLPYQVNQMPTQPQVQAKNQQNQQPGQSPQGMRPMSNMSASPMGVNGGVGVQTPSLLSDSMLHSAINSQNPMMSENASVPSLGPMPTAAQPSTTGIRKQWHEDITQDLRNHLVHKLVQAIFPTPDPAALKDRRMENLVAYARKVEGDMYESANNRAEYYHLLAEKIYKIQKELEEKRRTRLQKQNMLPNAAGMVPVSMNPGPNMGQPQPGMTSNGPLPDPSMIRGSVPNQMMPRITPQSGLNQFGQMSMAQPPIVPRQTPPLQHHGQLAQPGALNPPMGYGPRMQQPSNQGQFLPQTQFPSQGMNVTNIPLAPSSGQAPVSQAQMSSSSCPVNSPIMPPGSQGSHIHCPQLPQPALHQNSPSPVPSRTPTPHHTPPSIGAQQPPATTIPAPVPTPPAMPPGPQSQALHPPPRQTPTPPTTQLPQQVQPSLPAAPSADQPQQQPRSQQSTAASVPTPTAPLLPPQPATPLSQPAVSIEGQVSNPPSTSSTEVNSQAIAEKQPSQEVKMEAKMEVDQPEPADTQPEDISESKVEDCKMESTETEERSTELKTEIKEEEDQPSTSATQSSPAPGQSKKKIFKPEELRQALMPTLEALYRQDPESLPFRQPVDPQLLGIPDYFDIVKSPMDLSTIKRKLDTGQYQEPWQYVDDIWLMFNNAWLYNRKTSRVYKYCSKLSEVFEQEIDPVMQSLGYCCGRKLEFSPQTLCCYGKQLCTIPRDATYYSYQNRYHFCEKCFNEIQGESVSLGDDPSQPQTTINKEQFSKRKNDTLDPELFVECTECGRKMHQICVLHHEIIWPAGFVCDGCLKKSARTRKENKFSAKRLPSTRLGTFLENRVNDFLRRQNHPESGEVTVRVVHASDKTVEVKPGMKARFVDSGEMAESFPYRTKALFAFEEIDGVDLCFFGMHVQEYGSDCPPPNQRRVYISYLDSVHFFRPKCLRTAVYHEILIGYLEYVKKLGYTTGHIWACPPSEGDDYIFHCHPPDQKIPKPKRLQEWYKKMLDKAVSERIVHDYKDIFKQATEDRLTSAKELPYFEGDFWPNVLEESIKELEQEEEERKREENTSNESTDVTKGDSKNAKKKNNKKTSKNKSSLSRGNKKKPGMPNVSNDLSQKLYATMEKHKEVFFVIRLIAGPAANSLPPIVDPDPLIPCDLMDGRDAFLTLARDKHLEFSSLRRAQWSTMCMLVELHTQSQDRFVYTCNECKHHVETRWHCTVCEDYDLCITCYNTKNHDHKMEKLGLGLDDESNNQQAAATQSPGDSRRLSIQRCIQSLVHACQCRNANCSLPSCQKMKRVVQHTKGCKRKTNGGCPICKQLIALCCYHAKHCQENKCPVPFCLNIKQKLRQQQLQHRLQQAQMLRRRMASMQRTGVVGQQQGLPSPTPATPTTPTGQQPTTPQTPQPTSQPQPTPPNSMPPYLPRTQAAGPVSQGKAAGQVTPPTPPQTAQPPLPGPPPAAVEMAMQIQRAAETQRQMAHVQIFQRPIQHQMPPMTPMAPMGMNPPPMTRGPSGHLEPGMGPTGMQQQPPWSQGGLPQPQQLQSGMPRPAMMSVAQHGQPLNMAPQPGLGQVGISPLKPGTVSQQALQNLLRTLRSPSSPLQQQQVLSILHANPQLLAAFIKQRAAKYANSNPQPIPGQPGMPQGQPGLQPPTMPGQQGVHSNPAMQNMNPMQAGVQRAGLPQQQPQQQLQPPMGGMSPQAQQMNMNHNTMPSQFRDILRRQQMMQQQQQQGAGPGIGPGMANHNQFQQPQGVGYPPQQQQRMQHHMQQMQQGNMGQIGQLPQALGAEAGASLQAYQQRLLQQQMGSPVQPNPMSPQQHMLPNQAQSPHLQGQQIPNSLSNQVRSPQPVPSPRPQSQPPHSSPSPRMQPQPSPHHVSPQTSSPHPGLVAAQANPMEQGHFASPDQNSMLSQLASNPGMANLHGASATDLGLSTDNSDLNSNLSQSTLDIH
In another experiment the target is MYST3 (Homo sapiens, UniProt Q92794). The experiment is described as follows: Histone acetyltransferase (HAT) activity assay. Format: biochemical.
The mark [5] stands for this setting: KD (BROMOscan), sheet prints no unit (nM).
Where [6] appears, read: KD, BROMOscan Gene Symbol BRD3(1).
[7] abbreviates: KD, BROMOscan Gene Symbol ATAD2B.
[8] abbreviates: 1µM, read-out: HATs Activity (%).
Where [9] appears, read: 10µM, read-out: HATs Activity (%).
Where [10] appears, read: BROMOscan, BRD4(full-length,short-iso.).

Read-outs that look alike come from different tables or passages of the source.

Sequence of BRD2(1) (P25440 74-180 limits assumed): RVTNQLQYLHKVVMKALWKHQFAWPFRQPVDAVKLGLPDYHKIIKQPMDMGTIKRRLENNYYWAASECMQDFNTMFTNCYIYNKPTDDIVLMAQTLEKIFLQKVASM
Sequence of SMARCA4 (P51532 1453-1564 limits assumed): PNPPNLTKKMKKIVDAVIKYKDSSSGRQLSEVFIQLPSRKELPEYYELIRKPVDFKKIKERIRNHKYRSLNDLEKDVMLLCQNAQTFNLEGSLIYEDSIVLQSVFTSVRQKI
Sequence of PBRM1(2) (Q86U86 177-287 limits assumed): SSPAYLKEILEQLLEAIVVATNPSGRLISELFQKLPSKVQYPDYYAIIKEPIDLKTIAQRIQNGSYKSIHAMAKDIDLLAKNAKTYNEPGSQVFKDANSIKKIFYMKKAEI
Sequence of BRD2(1,2) (P25440 71-455 limits assumed): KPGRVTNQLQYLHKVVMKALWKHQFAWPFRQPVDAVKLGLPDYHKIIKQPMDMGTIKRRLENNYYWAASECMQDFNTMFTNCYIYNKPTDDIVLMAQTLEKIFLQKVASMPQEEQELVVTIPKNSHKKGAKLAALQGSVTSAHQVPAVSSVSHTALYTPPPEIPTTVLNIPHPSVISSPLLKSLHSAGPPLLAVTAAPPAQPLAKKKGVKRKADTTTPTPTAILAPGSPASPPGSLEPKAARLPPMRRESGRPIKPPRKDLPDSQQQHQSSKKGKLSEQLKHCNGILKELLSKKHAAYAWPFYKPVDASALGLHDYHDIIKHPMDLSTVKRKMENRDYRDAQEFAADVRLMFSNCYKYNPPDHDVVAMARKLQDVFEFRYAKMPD
Excerpt for ATAD2B: as §1
Excerpt for BRD2(1): as §1
Excerpt for BRD2(1,2): as §1
Excerpt for BRD3(1): as §1
Excerpt for BRD4(fl): as §1
Excerpt for BRD7: as §1
Excerpt for BRPF3: as §1
Excerpt for PBRM1(2): as §1
Excerpt for SMARCA2: as §1
Excerpt for SMARCA4: as §1
Excerpt for TRIM24: as §1

Consider `CCCOc1ccn2c(C(C)=O)cc(-c3ccccc3S(C)(=O)=O)c2c1` [GSK2801], for which the Kd (as a rule, the equilibrium constant for the complex coming apart) was 70 µM on EP300 [1] (KD, BROMOscan Gene Symbol EP300); greater than 30000 nM at PBRM1(2) (setting [5]); greater than 100000 nM at PBRM1(2) (KD, BROMOscan Gene Symbol PBRM1(2)); 34 µM at BRD3(1) (setting [6]); 41 µM on BRD4(fl); greater than 30000 nM on ATAD2B (setting [5]). Further, the dissociation constant Kd was greater than 100000 nM at ATAD2B (setting [7]); 19 µM at BRD2(1,2); 41 µM on BRD2(1); greater than 30000 nM at GCN5L2 [2] (setting [5]); greater than 100000 nM at GCN5L2 [2] (KD, BROMOscan Gene Symbol GCN5L2); greater than 30000 nM on SMARCA4 (setting [5]). In addition, the Kd at SMARCA4 (KD, BROMOscan Gene Symbol SMARCA4) was greater than 100000 nM; at SMARCA2 (setting [5]), greater than 30000 nM; on SMARCA2 (KD, BROMOscan Gene Symbol SMARCA2), greater than 100000 nM; at BRD7 (KD, BROMOscan Gene Symbol BRD7), 22 µM; at BRPF3 (KD, BROMOscan Gene Symbol BRPF3), 15 µM; on TRIM24 (KD, BROMOscan Gene Symbol TRIM24(Bromo.)), 24 µM.
Turning to `CCC(=O)N1CCOc2c(cc(-c3ccc(OC)c(OC)c3)cc2OCC2CCCN(C)C2)C1` (stereo not drawn) [I-CBP112], the Kd on EP300 [1] (KD, EP300) is 0.12 µM; at PBRM1(2) (setting [5]) it was greater than 30000 nM; at PBRM1(2) (KD, PBRM1(2)), greater than 100000 nM; at BRD3(1) (setting [6]), 5.4 µM; at BRD4(fl) it was 2.85 µM; on ATAD2B (setting [7]), 71000 nM. The Kd at BRD2(1,2) was 6.9 µM; at BRD2(1), 5.7 µM; at GCN5L2 [2] (setting [5]) it was greater than 30000 nM; at GCN5L2 [2] (KD, GCN5L2), greater than 100000 nM; at SMARCA4 (setting [5]), greater than 30000 nM; on SMARCA4 (KD, SMARCA4), greater than 100000 nM. For the same compound, the equilibrium dissociation constant (Kd) at SMARCA2 (setting [5]) is greater than 30000 nM; on SMARCA2 (KD, SMARCA2), greater than 100000 nM; at BRD7 (KD, BROMOscan Gene Symbol BRD7), 7.6 µM; on BRPF3 (KD, BRPF3), 95 µM; on TRIM24 (KD, TRIM24(Bromo.)), 12 µM. Besides, the “Tm (C) 10µM, temperature shift” value on BRPF1 was -0.2 Kelvin. For the same compound, the activity at 1 µM on GCN5L2 [3] (setting [8]) came out at 105%; on HAT1 (setting [8]) it was 100%; at MYST1 (setting [8]), 98%; at EP300 [4] (setting [8]), 97%; on MYST3 (setting [8]) it was 98%. In addition, the activity at 10 µM came out at 102% on GCN5L2 [3] (setting [9]); 94% on HAT1 (setting [9]); 103% at MYST1 (setting [9]); 99% at EP300 [4] (setting [9]); 99% at MYST3 (setting [9]).
Take `Cc1cc(=O)n(C)c2cc(N3C(=O)CC[C@H](NS(=O)(=O)CC(C)C)[C@H]3c3ccc(Cl)cc3)ccc12` [LP-99]: the Kd was greater than 50 µM on EP300 [1] (BROMOscan, EP300); greater than 50000 nM at PBRM1(2) (BROMOscan, PBRM1(2)); 44 µM at BRD3(1) (BROMOscan, BRD3(1)); greater than 50 µM at BRD4(fl) (setting [10]); greater than 50000 nM at ATAD2B (ATAD2B); 35 µM at BRD2(1,2) (BROMOscan, BRD2(1,2)). For the same compound, the Kd was greater than 50 µM at BRD2(1) (BRD2(1)); greater than 50000 nM on GCN5L2 [2] (BROMOscan, GCN5L2); greater than 50000 nM on SMARCA4 (BROMOscan, SMARCA4); greater than 50000 nM on SMARCA2 (BROMOscan, SMARCA2); greater than 50 µM at BRPF3 (BROMOscan, BRPF3); greater than 50 µM on TRIM24 (BROMOscan, TRIM24(Bromo.)). The “HATs Activity (%)” value at GCN5L2 [3] (1µM) amounted to 92%; at GCN5L2 [3] (10µM), 89%; on HAT1 (1µM) it was 104%; at HAT1 (10µM) it was 95%; on MYST1 (1µM), 90%; on MYST1 (10µM), 88%. Besides, the “HATs Activity (%)” value at EP300 [4] (1µM) was determined as 99%; at EP300 [4] (10µM), 98%; on MYST3 (1µM), 96%; at MYST3 (10µM) it was 100%.
For `O=C(C=CN1[C@H]2CC[C@@H]1c1ncnc(NC3CC3)c1C2)c1ccccc1O` [PFI-3 D1], the Kd on EP300 [1] (BROMOscan, EP300) was greater than 30 µM; on PBRM1(2) (BROMOscan, PBRM1(2)), 170 nM; on BRD3(1) (BROMOscan, BRD3(1)) it was greater than 30 µM; at BRD4(fl) (setting [10]), greater than 30 µM; on ATAD2B (BROMOscan, ATAD2B), greater than 30000 nM; on BRD2(1,2) (BROMOscan, BRD2(1,2)), greater than 30 µM. In addition, the Kd at BRD2(1) (BROMOscan, BRD2(1)) was greater than 30 µM; on GCN5L2 [2] (BROMOscan, GCN5L2), 23000 nM; at SMARCA4 (BROMOscan, SMARCA4), 46 nM; on SMARCA2 (BROMOscan, SMARCA2) it was 49 nM; on BRD7 (BROMOscan, BRD7) it was greater than 30 µM; at BRPF3 (BROMOscan, BRPF3), greater than 30 µM. The same compound registered a Kd at TRIM24 (BROMOscan, TRIM24(Bromo.)) greater than 30 µM.
For `O=C(O)c1ccccc1O` [Salicylic Acid], the Kd is greater than 14000 µM on EP300 [1] (KD, EP300); 1e+06 nM on PBRM1(2) (KD, PBRM1(2)); greater than 14000 µM on BRD4(fl); greater than 1.4e+07 nM at ATAD2B (KD, ATAD2B); 7300 µM at BRD2(1,2); greater than 14000 µM at BRD2(1). The Kd at GCN5L2 [2] (KD, GCN5L2) is greater than 1.4e+07 nM; at SMARCA4 (KD, SMARCA4), 320000 nM; at SMARCA2 (KD, SMARCA2), 250000 nM; at BRD7 (KD, BRD7) it was greater than 14000 µM; at BRPF3 (KD, BRPF3), greater than 14000 µM; at TRIM24 (KD, TRIM24(Bromo.)) it was greater than 14000 µM.

The values above are taken from paper PMC6478789, “A chemical toolbox for the study of bromodomains and epigenetic signaling” (Nature Communications, 2019).
